Measurements as given in publication PMC7046186, “Targeting tRNA-synthetase interactions towards novel therapeutic discovery against eukaryotic pathogens” (PLoS Neglected Tropical Diseases, 2020).

Assays:
Type in all cases: biochemical
Lm AlaRS = biological target: T1, Lm AlaRS (Leishmania major, UniProt Q4QBJ3); experiment: ATP/PPi exchange; conditions: 2 mM ATP, 90 μM alanine, 2 mM [32P]-PPi, 10 mM Mg2+, pH 7.2, 37 °C
T1 construct: gene LMJF_22_1540; codon-optimised synthetic gene in pTYB2; C-terminal intein tag cleaved off; expressed in E. coli BL21(DE3)
T1 sequence (Q4QBJ3 1-962): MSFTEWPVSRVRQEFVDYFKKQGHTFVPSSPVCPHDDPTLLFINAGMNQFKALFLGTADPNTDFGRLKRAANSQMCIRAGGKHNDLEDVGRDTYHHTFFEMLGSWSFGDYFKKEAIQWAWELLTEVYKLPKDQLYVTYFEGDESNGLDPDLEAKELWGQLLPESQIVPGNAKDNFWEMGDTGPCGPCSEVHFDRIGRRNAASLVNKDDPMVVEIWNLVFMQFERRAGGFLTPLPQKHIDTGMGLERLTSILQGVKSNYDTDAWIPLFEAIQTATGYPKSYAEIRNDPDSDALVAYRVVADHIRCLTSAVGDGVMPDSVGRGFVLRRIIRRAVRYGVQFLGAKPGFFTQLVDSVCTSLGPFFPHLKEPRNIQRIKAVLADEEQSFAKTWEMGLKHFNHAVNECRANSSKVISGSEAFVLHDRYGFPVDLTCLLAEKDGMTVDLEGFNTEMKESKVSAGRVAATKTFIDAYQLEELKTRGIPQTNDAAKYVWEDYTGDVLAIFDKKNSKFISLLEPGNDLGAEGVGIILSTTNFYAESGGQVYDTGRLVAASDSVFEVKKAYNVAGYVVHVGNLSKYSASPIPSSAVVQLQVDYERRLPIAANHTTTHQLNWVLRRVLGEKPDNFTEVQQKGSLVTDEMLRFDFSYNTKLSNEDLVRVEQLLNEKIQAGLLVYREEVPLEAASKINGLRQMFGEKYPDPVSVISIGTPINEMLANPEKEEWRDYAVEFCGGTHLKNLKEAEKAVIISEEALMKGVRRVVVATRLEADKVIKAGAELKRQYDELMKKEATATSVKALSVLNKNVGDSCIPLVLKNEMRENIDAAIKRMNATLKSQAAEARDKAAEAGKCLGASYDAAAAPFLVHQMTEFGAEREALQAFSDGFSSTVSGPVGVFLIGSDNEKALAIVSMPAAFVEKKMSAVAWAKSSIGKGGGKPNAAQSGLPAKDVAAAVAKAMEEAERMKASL

human AlaRS [1] = biological target: T2, human AlaRS (Homo sapiens, UniProt P49588); experiment: ATP/PPi exchange; conditions: 2 mM ATP, 90 μM alanine, 2 mM [32P]-PPi, 10 mM Mg2+, pH 7.2, 37 °C
T2 construct: gene AARS1; pET21a, C-terminal 6x-His tag; expressed in E. coli Rosetta(DE3)
T2 sequence (P49588 1-968): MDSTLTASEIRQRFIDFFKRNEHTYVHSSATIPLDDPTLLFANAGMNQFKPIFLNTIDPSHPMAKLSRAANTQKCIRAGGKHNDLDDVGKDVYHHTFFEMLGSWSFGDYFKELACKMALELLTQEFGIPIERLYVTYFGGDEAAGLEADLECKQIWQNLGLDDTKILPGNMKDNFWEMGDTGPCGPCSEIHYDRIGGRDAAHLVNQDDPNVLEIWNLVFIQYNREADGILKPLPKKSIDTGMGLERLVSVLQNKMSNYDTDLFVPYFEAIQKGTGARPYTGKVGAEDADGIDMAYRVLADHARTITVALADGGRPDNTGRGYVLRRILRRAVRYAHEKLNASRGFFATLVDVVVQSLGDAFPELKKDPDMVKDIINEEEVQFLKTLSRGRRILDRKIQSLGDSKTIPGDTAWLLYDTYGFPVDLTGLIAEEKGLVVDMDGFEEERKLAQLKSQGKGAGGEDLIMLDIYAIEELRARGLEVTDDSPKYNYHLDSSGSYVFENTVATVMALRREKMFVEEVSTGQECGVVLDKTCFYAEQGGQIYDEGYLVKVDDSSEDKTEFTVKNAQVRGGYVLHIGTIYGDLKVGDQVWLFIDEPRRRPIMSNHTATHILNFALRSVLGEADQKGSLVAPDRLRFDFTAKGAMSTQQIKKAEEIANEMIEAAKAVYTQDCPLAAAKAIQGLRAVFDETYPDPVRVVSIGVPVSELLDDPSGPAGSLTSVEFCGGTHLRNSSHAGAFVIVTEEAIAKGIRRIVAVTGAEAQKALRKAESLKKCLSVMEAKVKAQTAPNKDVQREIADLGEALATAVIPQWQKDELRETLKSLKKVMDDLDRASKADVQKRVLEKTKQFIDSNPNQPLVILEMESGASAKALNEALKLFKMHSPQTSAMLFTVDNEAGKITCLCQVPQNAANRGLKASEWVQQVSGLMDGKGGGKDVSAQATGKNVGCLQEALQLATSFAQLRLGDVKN

Tc AlaRS = biological target: T3, Tc AlaRS (Trypanosoma cruzi, UniProt Q4D747); experiment: aminoacylation of Tc tRNA-Ala with […]-Ala; conditions: labelled compound, ATP
T3 construct: gene Tc00.1047053506863.10; codon-optimised synthetic gene in pET21b; C-terminal 6x-His tag; expressed in E. coli XJb(DE3)
T3 sequence (Q4D747 1-959): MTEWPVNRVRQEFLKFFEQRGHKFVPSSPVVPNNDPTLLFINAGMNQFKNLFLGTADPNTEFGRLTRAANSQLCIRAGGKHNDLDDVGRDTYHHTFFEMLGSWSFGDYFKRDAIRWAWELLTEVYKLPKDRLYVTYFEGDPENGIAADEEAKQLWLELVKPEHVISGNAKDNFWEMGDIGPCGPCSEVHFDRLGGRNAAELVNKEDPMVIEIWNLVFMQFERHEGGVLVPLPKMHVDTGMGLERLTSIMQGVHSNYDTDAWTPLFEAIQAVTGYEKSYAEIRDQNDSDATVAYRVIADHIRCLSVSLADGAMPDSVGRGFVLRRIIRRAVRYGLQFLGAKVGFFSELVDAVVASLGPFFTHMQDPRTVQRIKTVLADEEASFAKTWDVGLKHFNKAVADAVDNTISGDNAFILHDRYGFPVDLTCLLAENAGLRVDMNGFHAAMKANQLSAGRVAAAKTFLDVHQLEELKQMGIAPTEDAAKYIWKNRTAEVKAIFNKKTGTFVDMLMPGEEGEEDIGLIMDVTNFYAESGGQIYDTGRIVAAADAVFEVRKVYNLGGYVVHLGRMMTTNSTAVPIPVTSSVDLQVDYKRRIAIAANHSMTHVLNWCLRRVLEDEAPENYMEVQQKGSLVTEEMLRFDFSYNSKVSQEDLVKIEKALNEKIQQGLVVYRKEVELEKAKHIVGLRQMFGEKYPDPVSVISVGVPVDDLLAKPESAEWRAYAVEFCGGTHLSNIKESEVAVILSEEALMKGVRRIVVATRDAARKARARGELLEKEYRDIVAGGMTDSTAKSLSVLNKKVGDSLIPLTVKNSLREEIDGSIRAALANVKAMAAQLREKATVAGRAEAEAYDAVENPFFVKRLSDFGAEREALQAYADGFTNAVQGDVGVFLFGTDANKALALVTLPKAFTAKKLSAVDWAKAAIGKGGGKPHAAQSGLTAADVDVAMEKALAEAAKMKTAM

human AlaRS [2] = biological target: T2, human AlaRS; experiment: ATP/PPi exchange (amino acid activation); conditions: 2 mM ATP, 2 mM [32P]-PPi, 10 mM Mg2+, pH 7.2, 37 °C, 90 μM alanine
Lm ThrRS = biological target: T4, Lm ThrRS (Leishmania major, UniProt E9AEW4); experiment: aminoacylation of Lm tRNA-Thr with […]-Thr; conditions: labelled compound, ATP
T4 construct: gene LMJF_35_1410; codon-optimised synthetic gene in pTYB2; C-terminal intein tag cleaved off; expressed in E. coli BL21(DE3)
T4 sequence (E9AEW4 1-787): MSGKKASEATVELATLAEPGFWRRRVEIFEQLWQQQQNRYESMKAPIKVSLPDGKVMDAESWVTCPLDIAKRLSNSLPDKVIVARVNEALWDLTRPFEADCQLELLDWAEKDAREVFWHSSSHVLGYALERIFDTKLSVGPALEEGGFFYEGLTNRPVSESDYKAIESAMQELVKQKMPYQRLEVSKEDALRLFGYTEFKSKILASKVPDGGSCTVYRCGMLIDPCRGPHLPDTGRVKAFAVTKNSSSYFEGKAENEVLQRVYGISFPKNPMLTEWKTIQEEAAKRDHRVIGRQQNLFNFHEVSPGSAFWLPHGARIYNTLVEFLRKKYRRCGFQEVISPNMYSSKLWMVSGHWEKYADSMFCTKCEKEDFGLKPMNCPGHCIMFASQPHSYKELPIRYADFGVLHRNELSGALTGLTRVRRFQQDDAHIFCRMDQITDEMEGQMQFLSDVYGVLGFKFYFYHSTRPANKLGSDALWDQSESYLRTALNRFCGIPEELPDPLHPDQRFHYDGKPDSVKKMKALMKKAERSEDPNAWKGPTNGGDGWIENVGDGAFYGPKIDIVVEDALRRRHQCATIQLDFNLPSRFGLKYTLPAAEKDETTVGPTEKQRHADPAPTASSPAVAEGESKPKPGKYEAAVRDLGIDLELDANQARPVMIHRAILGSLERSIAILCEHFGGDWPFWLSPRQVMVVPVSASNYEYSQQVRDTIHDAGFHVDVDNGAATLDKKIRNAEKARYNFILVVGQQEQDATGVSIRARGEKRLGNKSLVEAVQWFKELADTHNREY

## Nc1ncnc2c1ncn2[C@@H]1O[C@H](COP(=O)(O)OP(=O)(O)OP(=O)(O)O)[C@@H](O)[C@H]1O [ATP]
Lm AlaRS
  ATP/PPi exchange: we used pyrophosphate exchange to monitor ATP-dependent amino acid activation
Human AlaRS [1]
  ATP/PPi exchange: we used pyrophosphate exchange to monitor ATP-dependent amino acid activation

## C[C@H](N)C(=O)O [alanine]
Tc AlaRS
  aminoacylation of Tc tRNA-Ala with [14C]-Ala: aminoacylation inhibition assay using Tc AlaRS and tRNA^Ala
Human AlaRS [2]
  ATP/PPi exchange (amino acid activation): Treatment of the human AlaRS enzyme with the MNP inhibitors had no effect on amino acid activation

## C[C@@H](O)[C@H](N)C(=O)O [threonine]
Lm ThrRS
  aminoacylation of Lm tRNA-Thr with [14C]-Thr: re-screened against Lm Threonyl-tRNA synthetase (ThrRS) and tRNA^Thr aminoacylation
